Measurements from ChEMBL document CHEMBL3399960, “Cytochalasin derivatives from a jellyfish-derived fungus Phoma sp” (Bioorg Med Chem Lett, 2015).

Legend:
Format in all cases: functional, cell-based
[1] = Cytotoxicity against human HCT116 cells after 24 hrs by WST assay; settings: HCT-116, 24 h
KB = experiment: Cytotoxicity against human KB cells after 24 hrs by WST assay
A549 = experiment: Cytotoxicity against human A549 cells after 24 hrs by WST assay; settings: A549, 24 h

| Structure (SMILES) | IC50 [1] | IC50 (KB) | IC50 (A549) |
| --- | --- | --- | --- |
| CC1=C(C)[C@H]2[C@H](Cc3ccccc3)NC(=O)[C@]23OC(=O)/C=C/C(=O)CCC[C@@H](C)C/C=C/[C@H]3[C@@H]1O | 38.1 µM | 19.9 µM | 29.2 µM |
| CC1=C(C)[C@H]2[C@H](Cc3ccccc3)NC(=O)[C@]23OC(=O)CCC(=O)CCC[C@@H](C)C/C=C/[C@H]3[C@@H]1O | > 40 µM | > 40 µM | 37.3 µM |
| CC1=C(C)[C@H]2[C@H](Cc3ccccc3)NC(=O)[C@]23OC(=O)CC[C@H](O)CCC[C@@H](C)C/C=C/[C@H]3[C@@H]1O | > 40 µM | > 40 µM | > 40 µM |
| C=C1[C@@H](C)[C@H]2[C@H](Cc3ccccc3)NC(=O)[C@]23OC(=O)CCC(=O)CCC[C@@H](C)C/C=C/[C@H]3[C@@H]1O | 39.3 µM | 37.3 µM | 39.3 µM |
| CC1=C[C@@H]2/C=C/C[C@H](C)CCCC/C=C/C(=O)O[C@]23C(=O)N[C@@H](Cc2ccccc2)[C@@H]3[C@@H]1C | 18.2 µM | 19.7 µM | 36.2 µM |
| COc1cccc2c1C(=O)c1c(O)c3c(c(O)c1C2=O)C[C@@](O)(C(=O)CO)C[C@@H]3O[C@H]1C[C@H](N)[C@H](O)[C@H](C)O1 [DOXORUBICIN] | 2.2 µM | 4.3 µM | 1.3 µM |
